IC50 data for 13 compounds are collected here from patent US9242984B2, “Pyrazolyl derivatives as Syk inhibitors” (Merck Sharp & Dohme Corp., priority 2012, dated 2016).

Where two headings read alike, the source gives them in different places.

The experiment has as its target T1, recombinant human Syk (GST-hSyk fusion protein) (Homo sapiens, UniProt P43405).
T1 construct: purchased Carna Biosciences 08-176
The experiment in a line: Homogeneous Time-Resolved Fluorescence (HTRF) assay for the recombinant human Syk enzyme. The format is biochemical. The settings on record: 10-dose titration, 25 μM ATP. Summed up:
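IC50 came from a four-parameter fit over ten doses, 10 μM to 0.508 nM, with HTRF read-out (Eu-anti-pTyr antibody, SA-APC, EDTA stop, 30 min). The enzyme, 5 pM GST-hSyk, met compound for 10 min, then phosphorylated 250 nM biotin-peptide with 25 μM ATP and 5 mM Mg for 45 min at room temperature, pH 7.5.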
Background: Time-resolved FRET reads energy transfer from a long-lived donor to a nearby acceptor.

Where [1] appears, read: IC50 class, read-out: rhSYK Activity.

For `Cc1cc(Nc2nccc(C(F)(F)F)n2)cc(-c2cnn(CCCC(N)=O)c2)c1` [Example 8.9, 4-[4-(3-methyl-5-{[4-(trifluoromethyl)-pyrimidin-2-yl]amino}phenyl)-1H-pyrazol-1-yl]butanamide], under setting [1], the IC50 was ≤ 100 nM.

On to `Cc1cc(Nc2nccc(C)n2)cc(-c2cnn(C(C)(C)C(N)=O)c2)c1` [Example 8.10, 2-methyl-2-(4-{3-methyl-5-[(4-methyl-pyrimidin-2-yl)amino]-phenyl}-1H-pyrazol-1-yl)propanamide], for which, under setting [1], the IC50 fell in the range of 100 to 1000 nM.

As for `Cc1cc(Nc2nccc(C(F)(F)F)n2)cc(-c2cnn(CC(O)c3ccc(C(N)=O)cc3)c2)c1` (centres unmarked) [Example 8.12, 4-{1-hydroxy-2-[4-(3-methyl-5-{[4-(trifluoromethyl)-pyrimidin-2-yl]amino}-phenyl)-1H-pyrazol-1-yl]ethyl}benzamide], the IC50 under setting [1] was ≤ 100 nM.

Take `Cc1cc(Nc2nccc(C(F)(F)F)n2)cc(-c2cnn(C[C@@H](O)C(N)=O)c2)c1` [Example 8.13, (2r)-2-hydroxy-3-[4-(3-methyl-5-{[4-(trifluorometh-yl)pyrimidin-2-yl]amino}phenyl)-1H-pyrazol-1-yl]propanamide]: the IC50 under setting [1] was ≤ 100 nM.

With `Cc1cc(Nc2nccc(C(F)(F)F)n2)cc(-c2cnn(C[C@H](O)C(N)=O)c2)c1` [Example 8.16, (2s)-2-hydroxy-3-[4-(3-methyl-5-{[4-(trifluorometh-yl)pyrimidin-2-yl]amino}phenyl)-1H-pyrazol-1-yl]propanamide], the IC50 under setting [1] is ≤ 100 nM.

With `Cc1cc(Nc2nccc(OCCO)n2)cc(-c2cnn(C3CCC(C(N)=O)CC3)c2)c1` (centres unmarked) [Example 8.17, 4-[4-(3-{[4-(2-hydroxy-ethoxy)pyrimidin-2-yl]amino}-5-methylphenyl)-1H-pyrazol-1-yl]-cyclo-hexanecarboxamide], the IC50 under setting [1] was ≤ 100 nM.

Regarding `Cc1cc(Nc2nccc(C(F)(F)F)n2)cc(-c2cnn(C3CCC(C(N)=O)CC3)c2)c1` (centres unmarked) [Example 8.18, 4-[4-(3-methyl-5-{[4-(trifluorometh-yl)pyrimidin-2-yl]amino}phenyl)-1H-pyrazol-1-yl]-cyclohexane-carboxamide], the IC50 under setting [1] was ≤ 100 nM.

On to `Cc1cc(Nc2nccc(C(F)(F)F)n2)cc(-c2cnn(C3CCC(C(N)=O)C(C)(C)C3)c2)c1` (centres unmarked) [Example 8.19, 2,2-dimethyl-4-[4-(3-methyl-5-{[4-(trifluorometh-yl)pyrimidin-2-yl]amino}phenyl)-1H-pyrazol-1-yl]-cyclohexanecarbox-amide], for which, under setting [1], the IC50 was ≤ 100 nM.

`Cc1cc(Nc2nccc(C(F)(F)F)n2)cc(-c2cnn(C(C)C(N)=O)c2)c1` (centres unmarked) [Example 8.20, 2-[4-(3-methyl-5-{[4-(trifluorometh-yl)pyrimidin-2-yl]amino}phenyl)-1H-pyrazol-1-yl]propanamide]: under setting [1], the IC50 was ≤ 100 nM.

On to `Cc1cc(Nc2nccc(C(F)(F)F)n2)cc(-c2cnn(CC(C)(O)C(N)=O)c2)c1` (centres unmarked) [Example 8.23, 2-hydroxy-2-methyl-3-[4-(3-methyl-5-{[4-(trifluoromethyl)-pyrimidin-2-yl]amino}-phenyl)-1H-pyrazol-1-yl]propanamide], for which, under setting [1], the IC50 was ≤ 100 nM.

Turning to `Cc1cc(Nc2nccc(C(F)(F)F)n2)cc(-c2cnn(CC(O)c3ccc(C(N)=O)cc3)c2)c1` (centres unmarked) [Example 8.24, 4-{1-hydroxy-2-[4-(3-methyl-5-{[4-(trifluorometh-yl)pyrimidin-2-yl]amino}-phenyl)-1H-pyrazol-1-yl]ethyl}-benzamide], the IC50 under setting [1] is ≤ 100 nM.

For the compound `Cc1cc(Nc2nccc(C(F)(F)F)n2)cc(-c2cnn(C(C)(C)CC#N)c2)c1` [Example 9.1, 3-methyl-3-[4-(3-methyl-5-{[4-(trifluoromethyl)pyrimidin-2-yl]amino}phenyl)-1H-pyrazol-1-yl]butanenitrile], the IC50 reads like this: (read-out: rhSYK IC50) 9 nM; under setting [1], ≤ 100 nM.

Consider `Cc1cc(Nc2nccc(C(F)(F)F)n2)cc(-c2cnn(C3CCCC(O)C3O)c2)c1` (centres unmarked) [Example 10.2, 3-[4-(3-methyl-5-{[4-(trifluorometh-yl)pyrimidin-2-yl]amino}phen-yl)-1H-pyrazol-1-yl]cyclohexane-1,2-diol], for which the IC50 under setting [1] was ≤ 100 nM.
